The values below come from the supplement of paper PMC4862054.

SMILES strings stand for the structures.

Assay [1] has as its system BT-549. The note with it: 72 h. The method in brief: (§1)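 Two sequential readouts followed a 72 h incubation of breast cancer cell lines with compound at 5 concentrations in 10-fold steps over a compound-specific 10,000-fold range: CellTox Green fluorescence (485/520 nm) for cell death, then CellTiter-Glo luminescence, after 10 min at room temperature, for viability. Each plate was normalised to 0.1 % DMSO and a positive kill control. Dose-response curves were fitted for EC50, censored at the top concentration.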

A further assay relates to HCC1937. The note with it: 72 h. The method in brief:
as §1

The subject of assay [2] is MDA-MB-436. The note with it: 72 h. The procedure, abridged:
as §1

Assay [3] has as its system CAL-148. The assay is described as follows: normalised viability (% of control), CellTiter-Blue; higher = more viable cells (about 100 = DMSO control). The note with it: 3000 nM; incubation time: 72 h. Here is the method:
(§2)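 DSRT, CellTiter-Blue viability, 72 h incubation. Signal is normalised to DMSO and benzethonium chloride controls. Value is the normalised response at dose 8.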
(Alamar Blue is a resazurin reagent that responds to reducing activity.)

The subject of assay [4] is CAL-51. The description is as above. Conditions: 3000 nM; incubation time: 72 h. Here is the method:
as §2

Assay [5] has as its system CAL-85-1. Described as above. Conditions: 3000 nM; incubation time: 72 h. Here is the method:
as §2

Assay [6] has as its system DU-4475. Described as above. The note with it: 3000 nM; incubation time: 72 h. Here is the method: as §2
The subject of assay [7] is HDQ-P1. Described as above. Conditions: 3000 nM; incubation time: 72 h. Here is the method: as §2
Assay [8] deals with MDA-MB-453. The description is as above. The note with it: 3000 nM; incubation time: 72 h. Here is the method: as §2
In the next assay the test system is BT-474. The assay is described as follows: normalised viability (% of control), CellTiter-Blue; higher = more viable cells (about 100 = DMSO control). Conditions: 100 nM; incubation time: 72 h. The procedure, abridged:
(§3)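 Each entry is normalised viability at a single listed concentration within a series. It comes from breast cancer cell lines incubated 72 h with compound in 384-well plates, then measured with CellTiter-Blue fluorescence at 560/590 nm. Every plate was normalised between vehicle (100) and a positive kill control (0).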

In assay [9] the test system is BT-549. The assay is described as above. The note with it: 100 nM; incubation time: 72 h. The method in brief: as §3
The test system of assay [10] is CAL-51. Described as above. Conditions: 10 nM; incubation time: 72 h. The method in brief:
as §3

The subject of assay [11] is CAL-85-1. The assay is described as above. The note with it: 10 nM; incubation time: 72 h. The procedure, abridged:
as §3

For assay [12], the system named is DU-4475. The description is as above. The note with it: 10 nM; incubation time: 72 h. The procedure, abridged: as §3
Assay [13] has as its system HDQ-P1. Described as above. Conditions: 10 nM; incubation time: 72 h. The method in brief:
as §3

Another assay has as its system Hs578T. The assay is described as above. Conditions: 100 nM; incubation time: 72 h. The procedure, abridged:
as §3

Assay [14] relates to MDA-MB-436. The assay is described as above. Conditions: 100 nM; incubation time: 72 h. The method in brief:
as §3

For a further assay, the system named is MFM-223. The description is as above. Conditions: 100 nM; incubation time: 72 h. The method in brief:
as §3

A further assay has as its system SK-BR-3. The description is as above. The note with it: 100 nM; incubation time: 72 h. The method in brief:
as §3

Assay [15] concerns CAL-148. Description: normalised viability (% of control), CellTiter-Blue; higher = more viable cells (about 100 = DMSO control). Conditions: 300 nM; incubation time: 72 h. Here is the method: (§4)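 DSRT, CellTiter-Blue viability, 72 h incubation. Signal is normalised to DMSO and benzethonium chloride controls. Value is the normalised response at dose 6.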
For assay [16], the system named is CAL-51. Described as above. The note with it: 300 nM; incubation time: 72 h. Here is the method: as §4
Assay [17] has as its system CAL-85-1. The description is as above. Conditions: 300 nM; incubation time: 72 h. Here is the method:
as §4

Assay [18] relates to DU-4475. Described as above. Conditions: 300 nM; incubation time: 72 h. Here is the method:
as §4

For assay [19], the system named is HDQ-P1. The description is as above. The note with it: 300 nM; incubation time: 72 h. Here is the method:
as §4

For assay [20], the system named is MDA-MB-453. Described as above. Conditions: 300 nM; incubation time: 72 h. Here is the method: as §4
In assay [21] the test system is CAL-148. Described as above. Conditions: 10000 nM; incubation time: 72 h. Here is the method:
(§5)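 DSRT, CellTiter-Blue viability, 72 h incubation. Signal is normalised to DMSO and benzethonium chloride controls. Value is the normalised response at dose 9.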

For assay [22], the system named is CAL-51. The description is as above. Conditions: 10000 nM; incubation time: 72 h. Here is the method: as §5
In assay [23] the test system is CAL-85-1. The assay is described as above. Conditions: 10000 nM; incubation time: 72 h. Here is the method:
as §5

The test system of assay [24] is DU-4475. The description is as above. Conditions: 10000 nM; incubation time: 72 h. Here is the method: as §5
Assay [25] relates to HDQ-P1. The description is as above. The note with it: 10000 nM; incubation time: 72 h. Here is the method:
as §5

The test system of assay [26] is MDA-MB-453. The assay is described as above. The note with it: 10000 nM; incubation time: 72 h. Here is the method:
as §5

Turning to `C=CCc1cccc(/C=N/NC(=O)CN2CCN(Cc3ccccc3)CC2)c1O` [PAC-1], the “EC50, CellTiter-Glo” value with BT-549 [1] is 1230 nM; with HCC1937, 5300 nM; in the assay with MDA-MB-436 [2], 3480 nM.
On the same counts, the results for `CC[C@H](C)C(=O)O[C@H]1C[C@H](O)C=C2C=C[C@H](C)[C@H](CC[C@@H](O)C[C@@H](O)CC(=O)O)[C@H]21` [Pravastatin] are 2640 nM, 5960 nM and 27.6 nM.
Consider `COc1cc([C@@H]2c3cc4c(cc3[C@@H](O[C@@H]3O[C@@H]5CO[C@@H](c6cccs6)O[C@H]5[C@H](O)[C@H]3O)[C@H]3COC(=O)[C@H]23)OCO4)cc(OC)c1O` [Teniposide], for which the entries for the “EC50, CellTiter-Glo” value in the assay with BT-549 [1], in the assay with HCC1937 and in the assay on MDA-MB-436 [2] were 359 nM, 2710 nM and 204 nM, respectively. Moreover, the normalised viability in the assay with CAL-148 [3] is 9.86%; with CAL-51 [4] it was 12.6%; in the assay on CAL-85-1 [5], 41%; in the assay on DU-4475 [6], 2.12%; in the assay on HDQ-P1 [7], 67.3%; with MDA-MB-453 [8], 52.4%. The normalised viability in the assay on BT-474 stood at 105%; in the assay with BT-549 [9], 70.9%; in the assay on CAL-51 [10], 95%; with CAL-85-1 [11], 101%; in the assay with DU-4475 [12] it was 67.2%; with HDQ-P1 [13] it was 106%. The normalised viability came out at 71.5% with Hs578T; 81.8% in the assay with MDA-MB-436 [14]; 101% with MFM-223; 52.3% in the assay with SK-BR-3; 49.2% in the assay with CAL-148 [15]; 28.1% in the assay with CAL-51 [16]. In addition, the normalised viability came out at 82.6% in the assay on CAL-85-1 [17]; 10.4% with DU-4475 [18]; 86.3% with HDQ-P1 [19]; 87.9% in the assay on MDA-MB-453 [20]; 0.81% in the assay on CAL-148 [21]; 3.14% in the assay with CAL-51 [22]. The normalised viability is 26.4% in the assay on CAL-85-1 [23], -1.93% in the assay with DU-4475 [24], 53.2% in the assay with HDQ-P1 [25] and 30.6% in the assay on MDA-MB-453 [26].
Take `COc1cc2c(NC3CCN(C(C)C)CC3)nc(C3CCCCC3)nc2cc1OCCCN1CCCC1` [UNC0638]: the “EC50, CellTiter-Glo” value in the assay with BT-549 [1] came to 2530 nM; in the assay on HCC1937, 3460 nM; with MDA-MB-436 [2], 2510 nM.
For `CCCCC(=O)OCC(=O)[C@]1(O)Cc2c(O)c3c(c(O)c2[C@@H](O[C@H]2C[C@H](NC(=O)C(F)(F)F)[C@H](O)[C@H](C)O2)C1)C(=O)c1c(OC)cccc1C3=O` [Valrubicin], the “EC50, CellTiter-Glo” value with BT-549 [1] was 794 nM; in the assay on HCC1937 it was 629 nM; with MDA-MB-436 [2] it was 311 nM. Besides, the normalised viability with CAL-148 [3] is 0.71%; with CAL-51 [4], 6.83%; in the assay with CAL-85-1 [5], 31.2%; in the assay on DU-4475 [6], -1.61%; in the assay on HDQ-P1 [7] it was 45.8%; in the assay with MDA-MB-453 [8], 18.3%. For the same molecule, the normalised viability is 109% in the assay with BT-474; 85.2% with BT-549 [9]; 92.2% in the assay with CAL-51 [10]; 84.2% with CAL-85-1 [11]; 89.4% in the assay on DU-4475 [12]; 120% with HDQ-P1 [13]. The normalised viability was found to be 79.7% in the assay with Hs578T; 122% with MDA-MB-436 [14]; 91.9% in the assay with MFM-223; 57.8% in the assay on SK-BR-3; 35.5% in the assay with CAL-148 [15]; 34.5% in the assay with CAL-51 [16]. Further, the normalised viability in the assay with CAL-85-1 [17] came out at 75.1%; in the assay on DU-4475 [18], 23.4%; with HDQ-P1 [19], 72%; in the assay with MDA-MB-453 [20], 73.9%; in the assay on CAL-148 [21], 1.24%; with CAL-51 [22], 2.32%. Moreover, the normalised viability was 18.6% with CAL-85-1 [23], -0.99% with DU-4475 [24], 52.9% in the assay on HDQ-P1 [25] and 16.2% in the assay on MDA-MB-453 [26].
